For 80 molecules, RP-LC retention time results are on record in the METLIN SMRT retention time set (Domingo-Almenara et al. 2019).

The series can be described thus: gradient 5% acetonitrile 3 min, to 50% in 2 min, to 85% in 15 min, held 3 min, 100 µL/min. Particulars: column: Zorbax Extend-C18 2.1 x 50 mm; eluents: water / acetonitrile, 0.1% formic acid. Summed up: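 Retention times come from adduct peaks that were picked computationally and then checked by hand. The standards, pure and pooled in mixtures of ~100 molecules, were run on a Zorbax Extend-C18 column (2.1 × 50 mm, 1.8 μm) at 100 μL/min with water and acetonitrile, each with 0.1% formic acid. Detection was by quadrupole time-of-flight mass spectrometry in positive and negative ionization mode, with a dead volume of 40 μL and a dwell volume of 900 μL.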
Regarding `CCn1c(=O)c(-c2noc(C(=O)N3CCN(c4ccccn4)CC3)n2)nn(-c2ccc(F)cc2)c1=O`, the RP-LC retention time stood at 676 s.

As for `CN(C)C(CNC(=O)c1ccc(Br)o1)c1cn(C)c2ccccc12` (stereo not given), the RP-LC retention time worked out at 578 s.

Take `CCCNC(=O)C1CCCN(c2ccc(SCC(=O)Nc3cc(F)ccc3Cl)nn2)C1` (stereo not given): the RP-LC retention time was determined as 748 s.

With `COc1ccccc1OCCNC(=O)[C@@]12CCCC[C@H]1N(C)C(=O)CC2`, the RP-LC retention time came to 663 s.

The molecule `CCCCNC(=O)CN1C(=O)C2CCCCN2c2ccc(C(=O)N3CCCC3)cc21` (stereo not given) came in with an RP-LC retention time of 743 s.

`O=S(=O)(c1ccccc1)N1CCC(c2noc(C3CC3)n2)C1` (stereo not given): the RP-LC retention time is 866 s.

Take `CCc1noc(-c2ccnc(-n3ncc(C(=O)N4CCC(C)CC4)c3C)c2)n1`: the RP-LC retention time was found to be 1020 s.

`COc1cccc(Cn2nc(-c3nc(-c4cccc(Cl)c4)no3)ccc2=O)c1` came in with an RP-LC retention time of 1180 s.

As for `CCOc1cccc(CNc2nccc(-n3nc(C)cc3C)n2)c1`, the RP-LC retention time came to 858 s.

The molecule `COc1ccccc1NC(=O)Cn1nc2c3sc(N(C)C)nc3ncn2c1=O` showed an RP-LC retention time of 690 s.

Molecule `COCc1cnc2c(c1SCc1ccccc1F)c(=O)n(C)c(=O)n2C` showed an RP-LC retention time of 899 s.

The molecule `COCCCNC(=O)N1CCCCCC1c1cccc(C)c1` (stereo not given) yielded an RP-LC retention time of 910 s.

Molecule `CN(C)C(=O)c1csc(S(=O)(=O)N2CCC(C(=O)N3CCc4ccccc43)CC2)c1` displayed an RP-LC retention time of 809 s.

Regarding `CCC(C)NC(=O)c1cc2n(n1)CCCN(Cc1cccc(C)c1)C2=O` (stereo not given), the RP-LC retention time turned out to be 851 s.

Turning to `Cc1sc(NC(=O)Cc2nn(C)c(=O)c3ccccc23)nc1-c1ccc(Cl)cc1`, the RP-LC retention time came to 982 s.

Consider `CCN1CCN(C(=O)C(C)n2c(=O)c(C(F)(F)F)nc3cc(C)c(C)cc32)CC1` (stereo not given), for which the RP-LC retention time was found to be 702 s.

Molecule `Cc1ccc(S(=O)(=O)c2cnc(N3CCN(c4ccccc4Cl)CC3)nc2N)cc1` gave an RP-LC retention time of 1230 s.

Molecule `CC(C(=O)N1CCN(Cc2ccccc2)CC1)N1C(=O)CCCc2ccccc21` (stereo not given) gave an RP-LC retention time of 644 s.

In turn, `Cc1cc(-c2ccc3c(c2)CCN3C(=O)Cc2ccc(F)cc2)on1` displayed an RP-LC retention time of 1000 s.

`CCOC(=O)c1cnc2cc(Cl)c(OC)cc2c1N1CCN(c2cccc(Cl)c2)CC1` gave an RP-LC retention time of 1240 s.

`Cn1c(C(=O)NCCC2=CCCCC2)cc2c(=O)oc3ccccc3c21` came in with an RP-LC retention time of 1050 s.

`Cc1nnc(-c2ccc3ccn(CC(=O)NCc4ccc(F)cc4)c3c2)o1` registered an RP-LC retention time of 760 s.

On to `Cc1ccccc1-n1c(=O)c2sccc2n(Cc2nc(-c3cccc(C(F)(F)F)c3)no2)c1=O`, for which the RP-LC retention time worked out at 1100 s.

Molecule `O=C(c1cc2ccccc2o1)N1CCCC(c2nnc(C(F)(F)F)o2)C1` (stereo not given) came in with an RP-LC retention time of 872 s.

`N#Cc1ccc(C(=O)Nc2cnc(-c3cccc(Cl)c3)nc2)cc1` showed an RP-LC retention time of 1050 s.

As to `O=C(CSc1nc2ccccc2o1)NCCn1nc(-c2cccs2)ccc1=O`, the RP-LC retention time worked out at 718 s.

Take `O=C(NCc1ccc2c(c1)OCO2)C1CCN(CCc2c[nH]c3ncccc23)CC1`: the RP-LC retention time was 577 s.

The molecule `CCOC(=O)c1nnn(-c2ccccc2OC)c1C(=O)OCC` gave an RP-LC retention time of 917 s.

In the case of `COCC(=O)Nc1ccc2nc(-c3ccc(F)cc3)cc(OCC(=O)OC)c2c1`, the RP-LC retention time came out at 682 s.

Consider `Cn1cc(-c2nc(C(=O)Nc3cc(F)ccc3Cl)cs2)c2cccnc21`, for which the RP-LC retention time is 1260 s.

`Cc1ccc(NC(=O)NCC(c2cccnc2)c2cn(C)c3ccccc23)c(Cl)c1` (stereo not given) displayed an RP-LC retention time of 768 s.

For `CN(C)c1ccc(-c2noc(-c3nc(-c4ccccc4F)no3)n2)cc1`, the RP-LC retention time was 1250 s.

`Cc1ccc(NC(=O)N2CCC3(C2)C(=O)N(C)c2ccccc23)cc1` (stereo not given) displayed an RP-LC retention time of 814 s.

`CCN(CC)CCCC(C)Nc1nc(C)nc2cc(Cl)ccc12` (stereo not given) displayed an RP-LC retention time of 769 s.

On to `Cc1cc(-c2nnc(NC(=O)Cn3cnc4c3c(=O)n(C)c(=O)n4C)o2)n(C)n1`, for which the RP-LC retention time was 580 s.

Regarding `CC1=NS(=O)(=O)N(Cc2ccccc2)C=C1C(=O)OCc1nc(-c2ccccc2Cl)no1`, the RP-LC retention time is 1130 s.

`CCCN(C)C(=O)c1ccc2nc(-c3ccccc3)cn2c1`: the RP-LC retention time came to 618 s.

Turning to `COCCN(C)C(=O)c1cn(C2CN(C(=O)NCC(C)C)C2)nn1`, the RP-LC retention time came out at 624 s.

In the case of `CCCC(NC(=O)c1cccc(OC)c1)C(=O)Nc1nc2ccccc2[nH]1` (stereo not given), the RP-LC retention time stood at 696 s.

`CC(=O)Nc1ccc(CC(=O)NC(C)C(=O)N2CCCc3ccccc32)cc1` (stereo not given) showed an RP-LC retention time of 685 s.

For the molecule `CCC(C)NC(=O)CC1Sc2ncccc2N(C)C1=O` (stereo not given), the RP-LC retention time was found to be 632 s.

For `O=C(Cc1ccccc1Cl)N1CCc2nc(-c3ccc(Cl)cc3)ncc2C1`, the RP-LC retention time amounted to 1140 s.

For the molecule `CCOC(=O)c1c(S(=O)(=O)N2CCC(C(=O)Nc3cc(C)ccc3OC)CC2)c(C)n(C)c1C`, the RP-LC retention time was found to be 936 s.

For `CCc1nccn1Cc1nc(-c2cc(OC)c(OC)c(OC)c2)no1`, the RP-LC retention time came to 621 s.

The molecule `COc1ccc2c(c1)C1(CCN(C(=O)COc3ccc(Cl)cc3)C1)C(=O)N2C` (stereo not given) had an RP-LC retention time of 878 s.

The molecule `O=C(Nc1ccc(F)cc1F)c1c(O)c2cccnc2n(-c2ccc(F)cc2)c1=O` displayed an RP-LC retention time of 957 s.

As for `COc1ccc(-c2nc3cnccn3c2Nc2ccc(C)cc2C)cc1`, the RP-LC retention time worked out at 971 s.

In the case of `CCn1cc(-c2ccc(Cl)cc2)cc1C(=O)N1CCC(N2CCCCC2)CC1`, the RP-LC retention time was determined as 713 s.

In turn, `CN(C)C(=O)c1ccc2c(c1)N(CC(=O)N1CCN(c3ccccn3)CC1)C(=O)CO2` yielded an RP-LC retention time of 784 s.

`COc1ccc(Cl)cc1NC(=O)c1cnc2c(c1)c(=O)n(C)c(=O)n2-c1ccccc1` returned an RP-LC retention time of 1010 s.

Consider `CCOC(=O)c1noc2nc(C)nc(Nc3ccc(Cl)cc3)c12`, for which the RP-LC retention time was determined as 1200 s.

`CN(C)S(=O)(=O)c1ccc(C(=O)N2CCC(c3nnc(C(F)(F)F)o3)CC2)cc1`: the RP-LC retention time is 747 s.

`Cc1ccc(NC(=O)Cn2nc3c(Oc4ccccc4C)nccn3c2=O)cc1C`: the RP-LC retention time came out at 923 s.

`CS(=O)(=O)N1C[C@H]2CCN(Cc3cccc(F)c3F)C[C@H]21` gave an RP-LC retention time of 575 s.

`CCOC(=O)c1cc(S(=O)(=O)N2CCCC2C(=O)N2CCc3ccccc32)cn1C` (stereo not given): the RP-LC retention time came to 696 s.

Take `O=C(Cn1nc2c(Oc3cccc(F)c3)nccn2c1=O)Nc1ccccc1`: the RP-LC retention time came to 810 s.

`Cc1ccn2c(Nc3ccccc3C)c(-c3ccccc3O)nc2c1` registered an RP-LC retention time of 701 s.

`COC(=O)c1c(NCc2cccc(OC)c2)c2cc(Cl)ccc2[nH]c1=O` registered an RP-LC retention time of 816 s.

With `O=C(NCCN1CCCCCC1)c1cc2n(n1)CCCN(Cc1ccc(Cl)cc1)C2=O`, the RP-LC retention time was 670 s.

The molecule `COc1ccc(N2C=C(C(=O)N3CCOCC3)S(=O)(=O)c3ccc(Cl)cc32)cc1` came in with an RP-LC retention time of 770 s.

Turning to `O=C(NC1CCCC1)C1CCCN(S(=O)(=O)c2c[nH]c(C(=O)N3CCCC3)c2)C1` (stereo not given), the RP-LC retention time came to 698 s.

`CCOc1ccc2nc(Nc3ncc4c(n3)CC(c3ccc(OC)cc3)CC4=O)nc(C)c2c1` (stereo not given) returned an RP-LC retention time of 809 s.

The molecule `CC1=C(c2ccc(Cl)cc2)S(=O)(=O)N=C1N1CCCN(C(=O)NC(C)C)CC1` yielded an RP-LC retention time of 780 s.

For the molecule `CNc1nc(N2CCOCC2)nc2ccccc12`, the RP-LC retention time worked out at 582 s.

Regarding `Cc1ccc(Cn2cc(-c3ccncc3)cc2C(=O)N2CCN(C3CCCCC3)CC2)cc1`, the RP-LC retention time was determined as 602 s.

Molecule `CN(C)c1cccc(C(=O)N2CCN(S(=O)(=O)C3CC3)CC2)c1` displayed an RP-LC retention time of 630 s.

Molecule `CCCN(CC1CCOC1)C(=O)c1cccc(Cl)c1` (stereo not given) displayed an RP-LC retention time of 814 s.

Molecule `Cc1ccc(-c2nc3cnccn3c2NCCC(=O)N(C)C)cc1` registered an RP-LC retention time of 622 s.

Molecule `Cc1ccc(NC(=O)NCC2CCOCC2)c(C)c1` displayed an RP-LC retention time of 713 s.

Take `CCC(C(=O)NC1(c2nc(-c3cccnc3)no2)CCCCC1)c1ccccc1` (stereo not given): the RP-LC retention time came to 1010 s.

For the molecule `O=C([C@@H]1C[C@H](Oc2cccnc2)CN1C(=O)c1cnccn1)N1CCCC1`, the RP-LC retention time worked out at 552 s.

`CCCCOc1ccc(-c2cc3c4nnc(CCC(=O)N5CCN(CC)CC5)n4ccn3n2)cc1` had an RP-LC retention time of 680 s.

The molecule `CCOc1ccc2nc(Nc3nc(C)cc(C(F)(F)F)n3)nc(C)c2c1` had an RP-LC retention time of 753 s.

`O=C(Nc1ccccc1F)N1CCCC1c1nc(-c2ccccc2)no1` (stereo not given) came in with an RP-LC retention time of 940 s.

`CC1CCN(C(=O)CN(C)S(=O)(=O)c2ccc3c(c2)CCCC(=O)N3)CC1` came in with an RP-LC retention time of 713 s.

Molecule `CN1CCC(NC(=O)C2CCc3sc(C(=O)N4CCCCCC4)cc3C2)CC1` (stereo not given) showed an RP-LC retention time of 612 s.

In the case of `CN1C(=O)Cc2ccccc2C1C(=O)NCc1ccc(F)cc1` (stereo not given), the RP-LC retention time worked out at 706 s.

As to `O=C(NC1CCSC1=O)c1ccc(-n2cccn2)nn1` (stereo not given), the RP-LC retention time was determined as 657 s.

Consider `Cc1cccc(NC(=O)N2CCC3(CC2)NC(=O)c2ccccc2O3)c1`, for which the RP-LC retention time stood at 723 s.

Take `COc1cc(CN(CC2CCCO2)C(=O)c2oc3ccccc3c2C)cc(OC)c1OC` (stereo not given): the RP-LC retention time is 1030 s.
